Results taken from patent US20240262795A1, “PYRAZINE COMPOUNDS AS INHIBITORS OF FLT3” (Biomea Fusion, Inc., priority 2021, published 2024).

Assays:
[1] = test system: K-562; assay: Proliferation inhibition, CellTiter-Glo, K-562; assay type: cell-based, human; conditions: Homo sapiens, K562, 96 h; K-562 cells, IC50 (4 days), CellTiter-Glo; read-out: K-562 IC50
In short: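 About 10,000 cells per well in RPMI-1640 with 10% FBS. Compounds added 2 h after seeding at eight concentrations in duplicate (0.2% DMSO as 100% proliferation), then incubated ~96 h at 37° C, 5% CO2. ATP measured by CellTiter-Glo luminescence; IC50 from four-parameter logistic fit.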

[2] = biological target: T1, WT FLT3 (Homo sapiens, UniProt P36888); assay: WT FLT3 Lance Ultra TR-FRET kinase assay; assay type: biochemical
T1 construct: purchased Invitrogen PR4666C
T1 sequence (P36888 564-993 limits assumed): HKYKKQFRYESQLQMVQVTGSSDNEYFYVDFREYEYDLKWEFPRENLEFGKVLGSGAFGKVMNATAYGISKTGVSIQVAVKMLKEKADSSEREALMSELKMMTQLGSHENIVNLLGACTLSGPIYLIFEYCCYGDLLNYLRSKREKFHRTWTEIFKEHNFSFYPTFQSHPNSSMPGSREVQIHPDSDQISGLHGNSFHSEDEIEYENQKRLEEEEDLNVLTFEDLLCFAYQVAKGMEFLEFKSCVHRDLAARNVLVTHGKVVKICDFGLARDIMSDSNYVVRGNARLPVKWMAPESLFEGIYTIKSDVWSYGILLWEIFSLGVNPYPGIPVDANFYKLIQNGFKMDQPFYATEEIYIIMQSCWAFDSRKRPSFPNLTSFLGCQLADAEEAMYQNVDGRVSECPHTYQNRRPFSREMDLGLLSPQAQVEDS
In short: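 Lance Ultra TR-FRET with 50 nM ULight-JAK-1 (Tyr1023) peptide, Eu-anti-phosphotyrosine (PT66) detection, in HEPES pH 7.5 buffer at 23° C, 30 min enzyme/compound preincubation. WT: 0.5 nM enzyme, 100 μM ATP, 30 min; ITD: 0.0625 nM, 50 μM ATP, 60 min. IC50 by four-parameter fit of 11-point 3× dilutions.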

SMILES	IC50 [1]	IC50 [2]
CCc1nc(C(N)=O)c(Nc2cccc(CCNC(=O)[C@H](C)N(C)C(=O)/C=C/CNC)c2)nc1N(C)C(C)C [Compound 307, (S,E)-6-ethyl-5-(isopropyl(methyl)amino)-3-((3-(2-(2-(N-methyl-4-(methylamino)but-2-enamido)propanamido)ethyl)phenyl)amino)pyrazine-2-carboxamide]		201 to 500 pM
CCCc1nc(Nc2cccc([C@@H](C)CNC(=O)CN(C)C(=O)/C=C/CN3CCC3)c2)c(C(N)=O)nc1CC [Compound 507, (R,E)-3-((3-(1-(2-(4-(azetidin-1-yl)-N-methylbut-2-enamido)acetamido)propan-2-yl)phenyl)amino)-6-ethyl-5-propylpyrazine-2-carboxamide]	> 500000 pM	201 to 500 pM
CCc1nc(Nc2cccc([C@@H](C)CNC(=O)CN(C)C(=O)/C=C/CN3CCC3)c2)c(C(N)=O)nc1CC [Compound 508, (R, E)-3-((3-(1-(2-(4-(azetidin-1-yl)-N-methylbut-2-enamido)acetamido)propan-2-yl)phenyl)amino)-5,6-diethylpyrazine-2-carboxamide]	> 500000 pM	501 to 1000 pM
CCc1nc(C(N)=O)c(Nc2cc(F)cc(CCNC(=O)CN(C)C(=O)/C=C/CN3CCC3)c2)nc1C1CC1 [Compound 516, (E)-3-((3-(2-(2-(4-(azetidin-1-yl)-N-methylbut-2-enamido)acetamido)ethyl)-5-fluorophenyl)amino)-5-cyclopropyl-6-ethylpyrazine-2-carboxamide]	> 500000 pM	201 to 500 pM
CCc1nc(C(N)=O)c(Nc2cccc(CCNC(=O)CN(C)C(=O)/C=C/CN3CCC3)c2)nc1N(C)CC [Compound 516A, (E)-3-((3-(2-(2-(4-(azetidin-1-yl)-N-methylbut-2-enamido)acetamido)ethyl)phenyl)amino)-6-ethyl-5-(ethyl(methyl)amino) pyrazine-2-carboxamide]	> 500000 pM	501 to 1000 pM
CCc1nc(C(N)=O)c(Nc2cccc([C@@H](C)CNC(=O)CN(C)C(=O)/C=C/CN3CCC3)c2)nc1N(C)CC [Compound 518, (R,E)-3-((3-(1-(2-(4-(azetidin-1-yl)-N-methylbut-2-enamido)acetamido)propan-2-yl)phenyl)amino)-6-ethyl-5-(ethyl(methyl)amino)pyrazine-2-carboxamide]	> 500000 pM	201 to 500 pM
CCOc1nc(Nc2cccc(CCNC(=O)CN(C)C(=O)/C=C/CN3CCC3)c2)c(C(N)=O)nc1CC [Compound 602, (E)-3-((3-(2-(2-(4-(azetidin-1-yl)-N-methylbut-2-enamido)acetamido)ethyl)phenyl)amino)-5-ethoxy-6-ethylpyrazine-2-carboxamide]	> 500000 pM	201 to 500 pM
CCc1nc(C(N)=O)c(Nc2cccc(CCNC(=O)CN(C)C(=O)/C=C/CN3CCC3)c2)nc1OC(C)C [Compound 603, (E)-3-((3-(2-(2-(4-(azetidin-1-yl)-N-methylbut-2-enamido)acetamido)ethyl)phenyl)amino)-6-ethyl-5-isopropoxypyrazine-2-carboxamide]	> 500000 pM	201 to 500 pM
CCc1nc(C(N)=O)c(Nc2ccnc(CCNC(=O)[C@H](C)N(C)C(=O)/C=C/CN(C)C)c2)nc1N(C)C(C)C [Compound 605, (S, E)-3-((2-(2-(2-(4-(dimethylamino)-N-methylbut-2-enamido)propanamido)ethyl)pyridin-4-yl)amino)-6-ethyl-5-(isopropyl (methyl)amino) pyrazine-2-carboxamide]	> 500000 pM	201 to 500 pM

Results, then the compound that gave them:

IC50 [1]	IC50 [2]	SMILES
> 500000 pM	101 to 200 pM	CCc1nc(C(N)=O)c(Nc2cccc(CCNC(=O)[C@H](C)N(C)C(=O)/C=C/CN(C)C)c2)nc1N(C)C(C)C [Compound 204, (S,E)-3-((3-(2-(2-(4-(dimethylamino)-N-methylbut-2-enamido)propanamido)ethyl)phenyl)amino)-6-ethyl-5-(isopropyl(methyl)amino)pyrazine-2-carboxamide]
> 500000 pM	101 to 200 pM	CCc1nc(C(N)=O)c(Nc2cccc(CCNC(=O)[C@H](C)N(C)C(=O)/C=C/CN(C)C)c2)nc1NC(C)C [Compound 205, (S,E)-3-((3-(2-(2-(4-(dimethylamino)-N-methylbut-2-enamido)propanamido)ethyl)phenyl)amino)-6-ethyl-5-(isopropylamino)pyrazine-2-carboxamide]
> 500000 pM		CCc1nc(C(N)=O)c(Nc2cccc(CCNC(=O)CN(C)C(=O)/C=C/CN(C)C)c2)nc1C1CC1 [Compound 219, (E)-5-cyclopropyl-3-((3-(2-(2-(4-(dimethylamino)-N-methylbut-2-enamido)acetamido)ethyl)phenyl)amino)-6-ethylpyrazine-2-carboxamide]
> 500000 pM	501 to 1000 pM	Cc1nc(C(N)=O)c(Nc2cccc(CCNC(=O)[C@H](C)N(C)C(=O)/C=C/CN(C)C)c2)nc1N(C)C(C)C [Compound 232, (S, E)-3-((3-(2-(2-(4-(dimethylamino)-N-methylbut-2-enamido)propanamido)ethyl)phenyl)amino)-5-(isopropyl (methyl)amino)-6-methylpyrazine-2-carboxamide]
> 500000 pM	201 to 500 pM	Cc1nc(C(N)=O)c(Nc2cccc(CCNC(=O)CN(C)C(=O)/C=C/CN(C)C)c2)nc1N(C)C(C)C [Compound 250, (E)-3-((3-(2-(2-(4-(dimethylamino)-N-methylbut-2-enamido)acetamido)ethyl)phenyl)amino)-5-(isopropyl(methyl)amino)-6-methylpyrazine-2-carboxamide]
> 500000 pM	201 to 500 pM	CCc1nc(C(N)=O)c(Nc2cccc(CCNC(=O)CN(C)C(=O)/C=C/CN(C)C)c2)nc1N(C)CC [Compound 252, (E)-3-((3-(2-(2-(4-(dimethylamino)-N-methylbut-2-enamido)acetamido)ethyl)phenyl)amino)-6-ethyl-5-(ethyl (methyl)amino) pyrazine-2-carboxamide]
> 500000 pM	501 to 1000 pM	CCc1nc(C(N)=O)c(Nc2ccnc(CCNC(=O)[C@H](C)N(C)C(=O)/C=C/CN(C)C)c2)nc1C1CC1 [Compound 310, (S,E)-5-cyclopropyl-3-((2-(2-(2-(4-(dimethylamino)-N-methylbut-2-enamido)propanamido)ethyl)pyridin-4-yl)amino)-6-ethylpyrazine-2-carboxamide]
> 500000 pM		CCc1nc(C(N)=O)c(Nc2cccc([C@@H](C)CNC(=O)CN(C)C(=O)/C=C/CN(C)C)c2)nc1C1CC1 [Compound 504, (R,E)-5-cyclopropyl-3-((3-(1-(2-(4-(dimethylamino)-N-methylbut-2-enamido)acetamido)propan-2-yl)phenyl)amino)-6-ethylpyrazine-2-carboxamide]
> 500000 pM	101 to 200 pM	CCc1nc(C(N)=O)c(Nc2cccc([C@@H](C)CNC(=O)CN(C)C(=O)/C=C/CN3CCC3)c2)nc1C1CC1 [Compound 506, (R,E)-3-((3-(1-(2-(4-(azetidin-1-yl)-N-methylbut-2-enamido)acetamido)propan-2-yl)phenyl)amino)-5-cyclopropyl-6-ethylpyrazine-2-carboxamide]
100000 to 500000 pM		CCc1nc(C(N)=O)c(Nc2ccc(N3CCC(N4CCN(C)CC4)CC3)c(OC)c2)nc1NC1CCOCC1 [Gilteritinib, gilteritinib, reference compound]
